# Reference: patent US12357652B2, “Formulations of phosphoramidate derivatives of nucleoside drugs” (priority 2015, dated 2025)
# Like-named read-outs stand apart in the source and are kept apart here.
# Columns and labels:
# cancer models = settings: versus 5-fluorouracil; cited from earlier work
# cancer = experiment: Clinical trial of NUC-3373; assay type: in vivo; settings: infusion solutions prepared as in Example 3; early results
# Excerpt: In a clinical trial of NUC-3373, this administration methodology has allowed NUC-3373 to be successfully administered via a CVAD.
# [1] = Stability of NUC-3373 aqueous infusion solution in 250 ml 0.9% saline bags; assay type: physicochemical
# Method: The stability of the aqueous infusion solution was also evaluated using three different doses of NUC-3373 (1,000 mg, 2,000 mg and 3,000 mg) diluted in 250 ml 0.9% saline bags at two storage conditions (5° C. and 20° C.).
# [2] = versus 5-FU; cited from earlier work
# [3] = Solubility of NUC-3373 in a range of pharmaceutically relevant solvents; assay type: physicochemical
# Excerpt: The solubility of NUC-3373 (mixture of diastereoisomers) in a range of solvents is shown in […]
# [4] = 1,000 mg NUC-3373 in 250 ml 0.9% saline infusion bag, 0 hours, 5° C.
# [5] = 1,000 mg NUC-3373 in 250 ml 0.9% saline infusion bag, 0 hours, 20° C.
# [6] = 1,000 mg NUC-3373 in 250 ml 0.9% saline infusion bag, 8 hours, 5° C.
# [7] = 1,000 mg NUC-3373 in 250 ml 0.9% saline infusion bag, 8 hours, 20° C.
# [8] = 1,000 mg NUC-3373 in 250 ml 0.9% saline infusion bag, 24 hours, 5° C.
# [9] = 1,000 mg NUC-3373 in 250 ml 0.9% saline infusion bag, 24 hours, 20° C.
# [10] = 1,000 mg NUC-3373 in 250 ml 0.9% saline infusion bag, 48 hours, 5° C.
# [11] = 1,000 mg NUC-3373 in 250 ml 0.9% saline infusion bag, 48 hours, 20° C.
# [12] = 2,000 mg NUC-3373 in 250 ml 0.9% saline infusion bag, 0 hours, 5° C.
# [13] = 2,000 mg NUC-3373 in 250 ml 0.9% saline infusion bag, 0 hours, 20° C.
# [14] = 2,000 mg NUC-3373 in 250 ml 0.9% saline infusion bag, 8 hours, 5° C.
# [15] = 2,000 mg NUC-3373 in 250 ml 0.9% saline infusion bag, 8 hours, 20° C.
# [16] = 2,000 mg NUC-3373 in 250 ml 0.9% saline infusion bag, 24 hours, 5° C.
# [17] = 2,000 mg NUC-3373 in 250 ml 0.9% saline infusion bag, 24 hours, 20° C.
# [18] = 2,000 mg NUC-3373 in 250 ml 0.9% saline infusion bag, 48 hours, 5° C.
# [19] = 2,000 mg NUC-3373 in 250 ml 0.9% saline infusion bag, 48 hours, 20° C.
# [20] = 3,000 mg NUC-3373 in 250 ml 0.9% saline infusion bag, 0 hours, 5° C.
# [21] = 3,000 mg NUC-3373 in 250 ml 0.9% saline infusion bag, 0 hours, 20° C.
# [22] = 3,000 mg NUC-3373 in 250 ml 0.9% saline infusion bag, 8 hours, 5° C.
# [23] = 3,000 mg NUC-3373 in 250 ml 0.9% saline infusion bag, 8 hours, 20° C.
# [24] = 3,000 mg NUC-3373 in 250 ml 0.9% saline infusion bag, 24 hours, 5° C.
# [25] = 3,000 mg NUC-3373 in 250 ml 0.9% saline infusion bag, 24 hours, 20° C.
# [26] = 3,000 mg NUC-3373 in 250 ml 0.9% saline infusion bag, 48 hours, 5° C.
# [27] = 3,000 mg NUC-3373 in 250 ml 0.9% saline infusion bag, 48 hours, 20° C.
compound,measurement,setting,value
"C[C@H](NP(=O)(OC[C@H]1O[C@@H](n2cc(F)c(=O)[nH]c2=O)CC1O)Oc1cccc2ccccc12)C(=O)OCc1ccccc1 (stereo partly drawn) [NUC-3373, 5-fluoro-2′-deoxyuridine-5′-O-[1-naphthyl (benzoxy-L-alaninyl)] phosphate]",Activity in vitro,cancer models,outstanding and far superior to the results obtained with 5-fluorouracil
same,Efficacy in treating cancer,cancer,some efficacy in treating cancer
same,Assay content NUC-3373,[1]; [4],3.7 mg/mL
same,Osmolarity,[1]; [4],457 mosm/L H20
same,Purity,[1]; [4],96.2 % area
same,Total NUC-3373,[1]; [4],960.9 mg
same,pH,[1]; [4],5.5
same,Assay content NUC-3373,[1]; [5],3.9 mg/mL
same,Osmolarity,[1]; [5],462 mosm/L H20
same,Purity,[1]; [5],96.1 % area
same,Total NUC-3373,[1]; [5],1012.8 mg
same,pH,[1]; [5],5.6
same,Assay content NUC-3373,[1]; [6],3.6 mg/mL
same,Osmolarity,[1]; [6],450 mosm/L H20
same,Purity,[1]; [6],96.1 % area
same,Total NUC-3373,[1]; [6],934.9 mg
same,pH,[1]; [6],5.6
same,Assay content NUC-3373,[1]; [7],3.7 mg/mL
same,Osmolarity,[1]; [7],459 mosm/L H20
same,Purity,[1]; [7],96.1 % area
same,Total NUC-3373,[1]; [7],960.9 mg
same,pH,[1]; [7],5.5
same,Assay content NUC-3373,[1]; [8],3.6 mg/mL
same,Osmolarity,[1]; [8],456 mosm/L H20
same,Purity,[1]; [8],96.1 % area
same,Total NUC-3373,[1]; [8],934.9 mg
same,pH,[1]; [8],5.6
same,Assay content NUC-3373,[1]; [9],3.7 mg/mL
same,Osmolarity,[1]; [9],462 mosm/L H20
same,Purity,[1]; [9],96.1 % area
same,Total NUC-3373,[1]; [9],960.9 mg
same,pH,[1]; [9],5.8
same,Assay content NUC-3373,[1]; [10],3.6 mg/mL
same,Osmolarity,[1]; [10],451 mosm/L H20
same,Purity,[1]; [10],96.2 % area
same,Total NUC-3373,[1]; [10],934.9 mg
same,pH,[1]; [10],5.5
same,Assay content NUC-3373,[1]; [11],3.8 mg/mL
same,Osmolarity,[1]; [11],455 mosm/L H20
same,Purity,[1]; [11],96.1 % area
same,Total NUC-3373,[1]; [11],986.9 mg
same,pH,[1]; [11],5.5
same,Assay content NUC-3373,[1]; [12],7.2 mg/mL
same,Osmolarity,[1]; [12],639 mosm/L H20
same,Purity,[1]; [12],96.1 % area
same,Total NUC-3373,[1]; [12],1946 mg
same,pH,[1]; [12],5.5
same,Assay content NUC-3373,[1]; [13],7.4 mg/mL
same,Osmolarity,[1]; [13],646 mosm/L H20
same,Purity,[1]; [13],96.1 % area
same,Total NUC-3373,[1]; [13],2000 mg
same,pH,[1]; [13],5.5
same,Assay content NUC-3373,[1]; [14],7.0 mg/mL
same,Osmolarity,[1]; [14],637 mosm/L H20
same,Purity,[1]; [14],96.2 % area
same,Total NUC-3373,[1]; [14],1892 mg
same,pH,[1]; [14],5.5
same,Assay content NUC-3373,[1]; [15],7.5 mg/mL
same,Osmolarity,[1]; [15],633 mosm/L H20
same,Purity,[1]; [15],96.1 % area
same,Total NUC-3373,[1]; [15],2027 mg
same,pH,[1]; [15],5.5
same,Assay content NUC-3373,[1]; [16],6.9 mg/mL
same,Osmolarity,[1]; [16],638 mosm/L H20
same,Purity,[1]; [16],96.1 % area
same,Total NUC-3373,[1]; [16],1865 mg
same,pH,[1]; [16],5.5
same,Assay content NUC-3373,[1]; [17],7.2 mg/mL
same,Osmolarity,[1]; [17],639 mosm/L H20
same,Purity,[1]; [17],96.1 % area
same,Total NUC-3373,[1]; [17],1946 mg
same,pH,[1]; [17],5.5
same,Assay content NUC-3373,[1]; [18],7.0 mg/mL
same,Osmolarity,[1]; [18],635 mosm/L H20
same,Purity,[1]; [18],96.1 % area
same,Total NUC-3373,[1]; [18],1892 mg
same,pH,[1]; [18],5.4
same,Assay content NUC-3373,[1]; [19],7.1 mg/mL
same,Osmolarity,[1]; [19],632 mosm/L H20
same,Purity,[1]; [19],96.1 % area
same,Total NUC-3373,[1]; [19],1919 mg
same,pH,[1]; [19],5.4
same,Assay content NUC-3373,[1]; [20],10.2 mg/mL
same,Osmolarity,[1]; [20],831 mosm/L H20
same,Purity,[1]; [20],96.1 % area
same,Total NUC-3373,[1]; [20],2857 mg
same,pH,[1]; [20],5.5
same,Assay content NUC-3373,[1]; [21],10.4 mg/mL
same,Osmolarity,[1]; [21],818 mosm/L H20
same,Purity,[1]; [21],96.1 % area
same,Total NUC-3373,[1]; [21],2913 mg
same,pH,[1]; [21],5.5
same,Assay content NUC-3373,[1]; [22],10.4 mg/mL
same,Osmolarity,[1]; [22],823 mosm/L H20
same,Purity,[1]; [22],96.2 % area
same,Total NUC-3373,[1]; [22],2913 mg
same,pH,[1]; [22],5.5
same,Assay content NUC-3373,[1]; [23],10.5 mg/mL
same,Osmolarity,[1]; [23],812 mosm/L H20
same,Purity,[1]; [23],96.1 % area
same,Total NUC-3373,[1]; [23],2941 mg
same,pH,[1]; [23],5.5
same,Assay content NUC-3373,[1]; [24],10.1 mg/mL
same,Osmolarity,[1]; [24],825 mosm/L H20
same,Purity,[1]; [24],96.1 % area
same,Total NUC-3373,[1]; [24],2829 mg
same,pH,[1]; [24],5.5
same,Assay content NUC-3373,[1]; [25],10.4 mg/mL
same,Osmolarity,[1]; [25],817 mosm/L H20
same,Purity,[1]; [25],96.1 % area
same,Total NUC-3373,[1]; [25],2913 mg
same,pH,[1]; [25],5.5
same,Assay content NUC-3373,[1]; [26],10.0 mg/mL
same,Osmolarity,[1]; [26],821 mosm/L H20
same,Purity,[1]; [26],96.2 % area
same,Total NUC-3373,[1]; [26],2801 mg
same,pH,[1]; [26],5.6
same,Assay content NUC-3373,[1]; [27],10.1 mg/mL
same,Osmolarity,[1]; [27],812 mosm/L H20
same,Purity,[1]; [27],96.1 % area
same,Total NUC-3373,[1]; [27],2829 mg
same,pH,[1]; [27],5.4
same,Stability,"[1]; aqueous infusion solutions at all dose strengths (1,000 mg, 2,000 mg, 3,000 mg in 250 ml 0.9% saline), up to 48 hours at 5° C. and 20° C.",stable
same,Tolerability,[2],significantly better tolerated than 5-FU
same,Solubility,"[3]; DMA, organic solvent or mixture, read-out: Solubility",950 mg/mL
same,Solubility,"[3]; DMSO, organic solvent or mixture, read-out: Solubility",948 mg/mL
same,Solubility,"[3]; NMP, organic solvent or mixture, read-out: Solubility",705 mg/mL
same,Solubility,"[3]; PEG 400, organic solvent or mixture, read-out: Solubility",422 mg/mL
same,Solubility,[3]; Water,extremely low
same,Solubility,"[3]; ethanol, organic solvent or mixture, read-out: Solubility",778 mg/mL
same,Solubility,"[3]; propylene glycol, organic solvent or mixture, read-out: Solubility",449 mg/mL
same,Solubility,"[3]; water, read-out: Solubility",< 2 mg/mL
